From PMC10721633 (Nature Communications, 2023)

Assays:
DnaA^104-446 = target: T1, DnaA^104-446 (Bacillus subtilis, UniProt P05648); assay: cryo-EM structure; type: binding; details: BUS DNA scaffold, 2 uM ATP, 1 mM magnesium acetate, pH 7.5, 37 °C, glutaraldehyde crosslinked
T1 construct: domains III-IV, residues 104-446; His14-SUMO tag cleaved; E. coli BL21(DE3)-pLysS; heptamer on tailed BUS DNA, glutaraldehyde crosslinked

DnaA = target: T2, DnaA (Bacillus subtilis, UniProt P05648); assay: single-molecule TIRF DNA strand separation; type: biochemical; details: BUS DNA scaffold, 50 nM DnaA, 10 mM magnesium acetate, 100 mM potassium glutamate, pH 7.6
T2 construct: full length; His14-SUMO tag cleaved; E. coli BL21(DE3)-pLysS
T2 sequence (P05648 whole entry): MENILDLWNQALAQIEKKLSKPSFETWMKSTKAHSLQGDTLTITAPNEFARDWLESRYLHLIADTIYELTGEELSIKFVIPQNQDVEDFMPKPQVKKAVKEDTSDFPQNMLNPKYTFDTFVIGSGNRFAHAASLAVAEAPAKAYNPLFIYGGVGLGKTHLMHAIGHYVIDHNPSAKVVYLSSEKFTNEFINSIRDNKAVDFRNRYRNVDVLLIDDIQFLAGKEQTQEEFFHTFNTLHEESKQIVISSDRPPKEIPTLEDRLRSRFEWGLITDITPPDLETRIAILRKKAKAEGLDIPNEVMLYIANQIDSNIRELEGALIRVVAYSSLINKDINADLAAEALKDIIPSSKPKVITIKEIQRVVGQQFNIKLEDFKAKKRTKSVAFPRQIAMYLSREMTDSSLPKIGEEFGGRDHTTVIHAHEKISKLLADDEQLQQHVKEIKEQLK

[1] = target: the molecule itself; assay: cryo-EM structure; 4 µM partially ssDNA scaffold with 40 µM DnaA^104–446 monomer, 10 mM HEPES pH 7.5, 100 mM potassium glutamate, 1 mM magnesium acetate, 2 µM ATP, 37 °C 10 min; cross-linked with 0.1% glutaraldehyde, multimeric complex isolated by SEC (Superdex 200); oligomer assembled on DNA

Molecule | cryo-EM structure (DnaA^104-446) | single-molecule TIRF DNA strand separation (DnaA) | stoichiometry N [1]
Nc1ncnc2c1ncn2[C@@H]1O[C@H](COP(=O)(O)OP(=O)(O)OP(=O)(O)O)[C@@H](O)[C@H]1O [ATP] | The cryo-EM model reveals seven DnaA^ATP protomers (termed DnaA1-7) engaging the DNA scaffold | The addition of DnaA^ATP to the immobilized DNA scaffolds stimulated a reduction in the number | 
DnaA^104–446 (Bacillus subtilis DnaA lacking domains I-II; domains III-IV) (domain or fragment, UniProt P05648 104-446, looked up, also called DnaA1-7 (the seven protomers in the BUS complex); DnaA^ATP; source: E. coli BL21(DE3)-pLysS, purified (HisTrap, HiTrap Heparin, SUMO protease digestion, second HisTrap flow-through); not shown: His14, N-terminal, cleaved; SUMO, N-terminal, cleaved) SDFPQNMLNPKYTFDTFVIGSGNRFAHAASLAVAEAPAKAYNPLFIYGGVGLGKTHLMHAIGHYVIDHNPSAKVVYLSSEKFTNEFINSIRDNKAVDFRNRYRNVDVLLIDDIQFLAGKEQTQEEFFHTFNTLHEESKQIVISSDRPPKEIPTLEDRLRSRFEWGLITDITPPDLETRIAILRKKAKAEGLDIPNEVMLYIANQIDSNIRELEGALIRVVAYSSLINKDINADLAAEALKDIIPSSKPKVITIKEIQRVVGQQFNIKLEDFKAKKRTKSVAFPRQIAMYLSREMTDSSLPKIGEEFGGRDHTTVIHAHEKISKLLADDEQLQQHVKEIKEQLK |  |  | 7
